According to US5679671A, “Amino acid derivative” (Eisai Co., Ltd., priority 1993, dated 1997):

Tests used:
Assay type in all cases: biochemical
ACE [1] = molecular target: T1, ACE (Rattus norvegicus, UniProt P47820); assay: ACE inhibition activity (Experiment F-1); conditions: rat lung membrane fraction, pH 8.3
T1 construct: membrane fraction prepared from rat lung; from tissue; host or cells: rat lung, membrane fraction (method of Wu-Wong et al.)
T1 sequence (P47820 36-1313): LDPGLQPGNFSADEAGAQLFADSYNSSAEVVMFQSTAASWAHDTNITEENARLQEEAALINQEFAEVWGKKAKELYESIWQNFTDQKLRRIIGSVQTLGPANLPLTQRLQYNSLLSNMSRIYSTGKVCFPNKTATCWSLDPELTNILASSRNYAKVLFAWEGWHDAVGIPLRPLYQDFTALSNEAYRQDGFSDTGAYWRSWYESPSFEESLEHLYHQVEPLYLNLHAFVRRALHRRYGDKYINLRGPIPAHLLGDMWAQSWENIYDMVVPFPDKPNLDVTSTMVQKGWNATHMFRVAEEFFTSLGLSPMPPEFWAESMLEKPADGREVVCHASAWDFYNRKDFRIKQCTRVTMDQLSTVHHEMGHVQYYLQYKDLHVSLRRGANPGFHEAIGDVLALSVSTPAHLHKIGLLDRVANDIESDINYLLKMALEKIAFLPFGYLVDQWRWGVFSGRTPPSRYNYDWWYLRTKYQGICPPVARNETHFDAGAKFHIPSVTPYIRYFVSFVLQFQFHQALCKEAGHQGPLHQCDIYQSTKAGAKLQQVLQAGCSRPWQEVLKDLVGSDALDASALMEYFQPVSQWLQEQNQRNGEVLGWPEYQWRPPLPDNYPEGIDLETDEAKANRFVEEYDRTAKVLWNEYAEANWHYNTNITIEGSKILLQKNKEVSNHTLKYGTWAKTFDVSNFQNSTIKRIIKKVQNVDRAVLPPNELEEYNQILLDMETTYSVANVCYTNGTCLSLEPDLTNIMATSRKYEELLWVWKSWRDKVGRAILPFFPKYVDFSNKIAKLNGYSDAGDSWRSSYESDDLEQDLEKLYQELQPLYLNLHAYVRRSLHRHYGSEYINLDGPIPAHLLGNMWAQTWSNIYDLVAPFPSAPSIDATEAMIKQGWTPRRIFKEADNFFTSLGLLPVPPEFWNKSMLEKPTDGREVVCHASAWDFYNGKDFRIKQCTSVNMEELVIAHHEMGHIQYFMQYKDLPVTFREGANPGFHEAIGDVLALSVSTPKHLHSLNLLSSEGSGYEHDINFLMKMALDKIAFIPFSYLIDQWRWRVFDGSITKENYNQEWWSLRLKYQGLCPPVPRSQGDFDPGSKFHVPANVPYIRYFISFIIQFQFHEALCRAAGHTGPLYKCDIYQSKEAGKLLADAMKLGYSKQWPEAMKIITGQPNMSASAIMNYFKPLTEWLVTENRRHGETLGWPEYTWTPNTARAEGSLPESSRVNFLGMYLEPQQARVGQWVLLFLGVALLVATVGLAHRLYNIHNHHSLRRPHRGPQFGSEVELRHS
Experimental: As a source of the enzyme ACE, a membrane fraction prepared from rat lung in accordance with the method of Wu-Wong et al. (Characterization of Endthelin Converting Enzyme in Rat Lung., Jinshyum R. Wu-Wong, Gerald P. Budzik, Edward M, Devine and Terry J. Opgenorth, Biochem. Biophys. Res. Commun., 1990, 171, 1291-1296.) was used. The ACE activity was determined with the use of a modification (modified to a borate buffer pH 8.3) of the method of Cushman and Cheung (Spectrophotometric Assay and Properties of the Angiotensin-Converting Enzyme of Rabbit Lung., Cushman D. W. and Cheung H. S., 1971, 20, 1637-1648.). Now the procedure will be briefly described.
In the presence of ACE, the hippurate liberated from hippuryl-histidyl-leucine (Hippuryl-His-Leu (Peptide Institute Inc., Japan)) was extracted with ethyl acetate and then the absorbance was measured at a wavelength of 228 nm.
(§1) With respect to the NEP inhibition activity and the ACE inhibition activity, the inhibitor was added to the assay systems of both enzyme activities as described above in such a manner as to give the final concentrations of 1, 3, 10, 30, 100, 300 and 1000 inhibition curves were prepared, and then the concentration at which 50% inhibition was achieved was taken as IC50.

NEP [2] = molecular target: T2, NEP (Rattus norvegicus, UniProt P07861); assay: NEP inhibition activity (Experiment F-1); set-up: membrane fraction prepared from rat renal cortex; from tissue; host or cells: rat renal cortex, membrane fraction (method of Booth and Kenny); conditions: rat renal cortex membrane fraction
T2 sequence (P07861 1-750): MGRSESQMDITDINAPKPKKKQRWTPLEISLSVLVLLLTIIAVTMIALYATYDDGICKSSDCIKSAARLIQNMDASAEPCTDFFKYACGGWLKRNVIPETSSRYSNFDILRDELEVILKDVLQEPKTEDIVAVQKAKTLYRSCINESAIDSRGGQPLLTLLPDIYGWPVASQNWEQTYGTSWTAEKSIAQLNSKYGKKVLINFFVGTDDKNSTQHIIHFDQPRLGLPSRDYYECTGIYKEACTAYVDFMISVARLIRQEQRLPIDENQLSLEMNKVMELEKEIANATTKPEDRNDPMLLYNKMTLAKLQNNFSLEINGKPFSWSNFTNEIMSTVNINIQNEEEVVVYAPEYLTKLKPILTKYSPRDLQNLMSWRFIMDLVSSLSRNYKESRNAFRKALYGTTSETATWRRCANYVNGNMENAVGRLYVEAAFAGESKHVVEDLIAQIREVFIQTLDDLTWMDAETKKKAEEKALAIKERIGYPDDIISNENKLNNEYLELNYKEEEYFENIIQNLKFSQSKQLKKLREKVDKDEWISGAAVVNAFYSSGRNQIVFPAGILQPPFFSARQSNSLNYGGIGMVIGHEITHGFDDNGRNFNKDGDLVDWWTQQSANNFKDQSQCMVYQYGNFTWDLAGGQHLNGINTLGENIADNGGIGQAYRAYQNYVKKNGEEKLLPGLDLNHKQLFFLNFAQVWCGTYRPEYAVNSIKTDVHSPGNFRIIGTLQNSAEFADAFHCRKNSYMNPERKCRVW
Experimental: As a source of the enzyme NEP, a membrane fraction prepared from rat renal cortex in accordance with the method of Booth and Kenny (A Rapid Method for the Purification of Microvilli from Rabbit Kidney., Andrew G. Booth and A. John Kenny, Biochem. j., 1974, 142, 575-581.) was employed. The NEP activity was determined in accordance with the method of Orlowsky and Wilk (Purification and Specificity of a Membrane-Bound Metalloendpeptidase from Bovine Pituitaries., Marian Orlowsky and Shrwin Wilk, Biochemistry, 1981, 20, 4942-4950.). Now the procedure will be briefly described.
(§2) As a substrate, benzoyl-glycyl-arginyl-arginyl-2-naphthylamide (benzoyl-Gly-Arg-Arg-2-naphthylamide (Nova Biochem, Switzerland)) was used. In the presence of an NEP enzyme preparation and excessive leucine aminopeptidase (sigma chemical Co., U.S.A.), the liberated naphthylamine was made to undergo color development with first garnet (Sigma chemical Co., U.S.A.), followed by the measurement of the absorbance at a wavelength of 540 nm.
as §1

ACE [3] = molecular target: T1, ACE; assay: ACE inhibition activity using rat lung (Experiment C-2); conditions: Table C-1; rat lung membrane fraction, borate buffer pH 8.3
Experimental: The ACE inhibition activity was determined by using a membrane fraction prepared from rat lung in accordance with the method of Wu-Wong et al. (Characterization of Endthelin Converting Enzyme in Rat Lung., Junshyum R. Wu-Wong, Gerald P. Budzik, Edward M. Devine and Terry J. Opgenorth, Biochem. Biophys. Res. Commun., 1990, 171, 1291-1296.).
The ACE activity was determined with the use of a modification (modified to a borate buffer, pH 8.3) of the method of Cushman and Cheung (Spectrophotometric Assay and Properties of the Angiotensin-Converting Enzyme of Rabbit Lung., Cushman D. W. and Cheung H. S., 1971, 20, 1637-1648.).
In the presence of ACE, the hippurate liberated from hippuryl-histidyl-leucine (Hippuryl-His-Leu (PeptideInstitute Inc., Japan)) was extracted with ethyl acetate and then the absorbance was measured at a wavelength of 228 nm.
(§3) With respect to the ACE inhibition activity, the test compound was added to the reaction system as described above in such a manner as to give the final concentrations of 1, 3, 10, 30, 100, 300 and 1000 nM, an inhibition curve was prepared, and then the concentration at which 50% inhibition was achieved was taken as IC50. As a comparative compound, [4S-[4α,7α(R*),12bβ]]-7-[(1-oxo-2-(S)-thio-3-phenyl-propyl)amino]-1,2,3,4,6,7,8,12b-octahydro-6-oxopyrido-[2,1-a][2]benzazepine-4-carboxylic acid was used.

NEP [4] = molecular target: T2, NEP; assay: NEP inhibition activity (Experiment C-1); conditions: Table C-1
Experimental: The NEP activity was determined by the following manner in accordance with the method of Orlowsky and Wilk (Purification and Specificity of a Membrane-Bound Metalloendpeptidase from Bovine Pituitaries., Marian Orlowsky and Shrwin Wilk, Biochemistry, 1981, 20, 4942-4950.).
as §2
as §3, with “NEP” for “ACE”, “experimental” for “reaction”

Structure (SMILES) | IC50 (ACE [1]) [nM] | IC50 (NEP [2]) [nM] | IC50 (ACE [3]) [nM] | IC50 (NEP [4]) [nM]
O=C(O)CNC(=O)[C@@H](CS)Cc1ccc2c(c1)OCO2 [Comp cpd. F-1, N[1oxo-2(S)-mercaptomethyl-3-(3,4-methylenedioxy-phenyl)propyl]glycine, reference compound] | 48 | 17.1 |  | 
CC[C@H](C)[C@H](S)C(=O)N[C@H]1CSc2ccccc2N(CC(=O)O)C1=O [Example C-12, (R)-3-[[(2S,3S)-3-Methyl-1-oxo-2-thiopentyl]amino]-5-carboxymethyl-2,3-dihydro-1,5-benzothiazepin-4(5H)-one] |  |  | 12.5 | 15.1
CC[C@@H](C)[C@H](S)C(=O)N[C@H]1CCC[C@H]2SC[C@@H](C(=O)O)N2C1=O [Example F-23, [3R-[3α,6α(S*),9aβ]]-6-[[(S, 3R)-1-Oxo-2-thio-3-methylpentylamino]-octahydro-5-oxothiazol-[3,2-a]azepine-3-carboxylic acid] | 8 | 120 |  | 
CC(C)[C@H](S)C(=O)N[C@H]1CCC[C@H]2SC[C@@H](C(=O)O)N2C1=O [Example F-25, [3R-[3α,6α(S*),9aβ]]-6-[(S)-1-Oxo-2-thio-3-methylbutylamino]-octahydro-5-oxothiazol[3,2-a]azepine-3-carboxylic acid] | 9 | 265 |  | 

Second part, the molecule after the results:

IC50 (ACE [1]) [nM] | IC50 (NEP [2]) [nM] | IC50 (ACE [3]) [nM] | IC50 (NEP [4]) [nM] | Structure (SMILES)
7.7 | 22.5 |  |  | O=C(N[C@H]1CCC[C@H]2SC[C@@H](C(=O)O)N2C1=O)[C@@H](S)Cc1ccc(F)cc1 [Example F-14, [3R-[3α,6α(S*),9aβ]]-6[[(S)-1-Oxo-2-thio-3-(4-fluorophenyl)propyl]amino]-octahydro-5-oxothiazol [3,2-a]azepine-3-carboxylic acid]
7 | 5.6 |  |  | O=C(N[C@H]1CCC[C@H]2SC[C@@H](C(=O)O)N2C1=O)[C@@H](CS)Cc1ccccc1 [Example F-18, [3R-[3α,6α(S*),9aβ]]-6-[[(S)-1-Oxo-2-thiomethyl-3-phenylpropyl]amino]-octahydro-5-oxothiazol[3,2-a]-azepine-3-carboxylic acid]
13.5 | 104 |  |  | COc1ccc(C[C@H](S)C(=O)N[C@H]2CCC[C@H]3SC[C@@H](C(=O)O)N3C2=O)cc1 [Example F-19, [3R-[3α,6α(S*),9aβ]]-6-[[(S)-1-Oxo-2-thio-3-(4-methoxyphenyl)propyl]amino]-octahydro-5-oxothiazol-[3,2-a]azepine-3-carboxylic acid]
16 | 56.5 |  |  | O=C(N[C@H]1CCC[C@H]2SC[C@@H](C(=O)O)N2C1=O)[C@@H](S)Cc1ccc(-c2ccccc2)cc1 [Example F-20, [3R-[3α,6α(S*),9aβ]]-6-[[(S)-1-Oxo-2-thio-3-(1,4-biphenyl)propyl]amino]-octahydro-5-oxothiazol[3,2-a]azepine3-carboxylic acid]
13 | 9 |  |  | O=C(N[C@H]1CCC[C@H]2SC[C@@H](C(=O)O)N2C1=O)[C@@H](S)Cc1cccs1 [Example F-22, [3R-[3α,6α(S*),9aβ]]-6-[[(S)-1-Oxo-2-thio-3-(2-thienyl)propyl]amino]-octahydro-5-oxothiazol-[3,2-a]azepine-3-carboxylic acid]
13 | 8 |  |  | CC[C@H](S)C(=O)N[C@H]1CCC[C@H]2SC[C@@H](C(=O)O)N2C1=O [Example F-24, [3R-[3α,6α(S*),9aβ]]-6-[(S)-1-Oxo-2-thiobutylamino]-octahydro-5-oxothiazol[3,2-a]azepine-3-carboxylic acid]
